The values below are quoted from earlier work in patent US20210402001A1, “Zinc Porters, and their Monoclonal Antibody Conjugates, for the Prevention and Treatment of COVID-19 (SARS-CoV-2), Other Infections, and Cancers” (priority 2020, published 2021).

In one data set the test system is blood platelets. As to conditions: healthy individuals, single oral dose of 220 mg.
The conditions of data set [1]: intranasal.
For data set [2] the following is noted: oxidized HDEFA5.
Another data set deals with trypsin. As to conditions: reduced state, five trypsin cleavage sites.

Take `O=S(=O)([O-])[O-].[Zn+2]` [Zn sulfate]: the platelet activity entry in the data set with blood platelets is “hyperactive”. Also, in data set [1], the “loss of smell (anosmia)” value was “profound acute anosmia”.

Consider “ATCYCRTGRCATRESLSGVCEISGRLYRLCCR [HDEFA5]”, for which, in data set [2], the Zn dissociation constant entry is “picomolar”. Further, the “degradation by gut trypsin” value with trypsin is recorded as “rapidly degraded”.
